Source: patent US6566047B1, “Method for identifying neurite-growth promoting agents” (The Regents of the University of Colorado, priority 1998, dated 2003)
Entries after “also recorded” stand apart in the source; their conditions may differ. Blank lines part the entries; values can stand above or below the compound they belong to.

Assays:
MAT-Lu cells [1] = assay: Boyden chamber motility assay, MAT-Lu cells; format: cell-based, rat; settings: for Mat-Lu cells crossing filter in % of control +/− SEM: 4 hr, thrombin 200 nM, CDC 126 nM
Experimental: Boyden Chamber Motility Assays. Disposable transwells (Coming Costar, Cambridge, Mass.) of 6.5 mm diameter and 8 μm pore size were coated with 5 μg/ml laminin on both sides. The membranes were washed twice with Hank's balanced salt solution (HBSS) and then pre-incubated with growth medium containing 10% fetal bovine serum. Trypsinized cells (5×10^4) were plated into the upper well. After 1 hour the upper chamber was washed twice with HBSS, filled with serum-free medium and moved to a new lower chamber, also filled with serum-free medium, with or without thrombin and/or 0.75 nM insulin-like growth factor-1 (IGF-1). After incubation for 4 hrs, cells on the membrane were fixed and stained with a Diff-Quick kit (Baxter Scientific Products). Cells on the upper side were scraped off, the membranes were removed, mounted onto microscope slides and analyzed. Each filter was scanned twice at right angles under the light microscope with a 16×phase contrast objective lens. A continuous series of 20 frames for each filter was digitized using a high-resolution CCD camera (Kodak) and stored in a Power Macintosh computer. The two most peripheral pairs of frames from each scan were deleted so that 12 frames were analyzed for each filter. Cells that had crossed the membrane were counted and tabulated. The sum of the cells counted in the twelve frames was an individual data point.

MAT-Lu cells [2] = assay: Pseudopod morphometry (pseudopod length assay), MAT-Lu cells; format: cell-based, rat
Experimental: Pseudopod Morphometry. To study the effects of various agents on pseudopods on a short-term basis, we measured pseudopod lengths. Cells plated in 35-mm diameter dishes at low density (1×10^4 per dish) were incubated overnight, tie medium was changed, and the experiments were run four hours later. First, cultures were shifted to serum-free medium, which was replaced one hour later by serum-free medium with or without the various agents (thrombin, AA or HETEs). Care was taken to avoid heat and light inactivation of the eicosanoids. Culture dishes were placed on a Zeiss inverted microscope equipped with a heated stage and viewed with a 16×phase contrast objective lens. Randomly selected fields of the cultures, containing generally about 20 cells each, were recorded, digitized and stored in the computer at the onset of the experiment and at different times thereafter.
In some cases, individual cells were monitored over different periods of time immediately after introduction of the reagent, either by mixing it into the medium or by applying it locally to one end of the cell. Local application was done with a “puffer” system that expels microliter amounts of the desired solution from a micromanipulator-controlled micropipette tip. Cell morphology was recorded, and the captured images were analyzed with a Power Macintosh computer using NIH Image. Cell process length was measured from the center of the nucleus to the end of the process. Characterization of the frequencies of pseudopod lengths, at a fixed time for each of a sequence of concentrations of reagent, utilized a gamma regression model with an inverse quadratic linear predictor (McCullagh and Nelder, Generalized Linear Models 2d ed., pp. 291-292 (Chapman & Hall, 1989), separately fit to each concentration data set. Although no formal goodness-of-fit tests were carried out, in virtually every case there was good visual representation of the pattern of response (see FIG. 14). Most data, however, are shown as whisker-box plots, where the center point represents the 50%, the ends of the box the […] and 75%, and the “whiskers” the 5% and 95% quantiles (e.g., FIG. 11). Statistical comparisons of pseudopod lengths for different treatments were done by standard non-parametric techniques (Wilcoxon Rank Sum or Kruskal-Wallis Tests), as judged appropriate. Polynomial curve fittings were done by standard least-squares techniques. Statistical analyses and graphing were done with the use of SAS procedures: Reg, Phreg, Nparlway and Plot (SAS institute Inc., Cary, N.C.).

[3] = test system: growth cones in cultures of rat cerebral cortex; assay: Growth cone collapse assay in cortical neuron culture; format: cell-based
Experimental: Neuron Culture. Cerebral cortices were dissected from embryonic day 18 Sprague-Dawley rats, cut into explants of less than 1 mm^3 and cultured on either poly-D-lysine-coated coverglass (Assistent) or poly-D-lvsine-coated tissue culture plastic. After 24 hours in B27 neurobasal medium (NB) supplemented with 10% fetal bovine serum, cultures were switched to serum-free B27/NB. The cultures were incubated at 37° C. in 5% CO2 in air. Sprouting neurons were observed readily on day 1. On day 2 or 3, long neurites were present, and the cultures were used for collapse experiments.
Actin Staining. After experimentation, cultures were fixed by slow infusion of fixative (4% paraformaldehyde in 0.1 M phosphate buffer, pH 7.4) into the culture dishes over 10 min (Pfenninger and Maylié-Pfenninger, J. Cell Biol. 89:53-546 (1981)). Thereafter, the fixative was removed by rinsing three times with phosphate-buffered saline (PBS) containing 1 mM glycine. Cultures were then blocked with PBS/1% bovine serum albumin (BSA) and permeabilized by incubation in 0.02% Triton X-100 for 5 min. After three washes in PBS/BSA, cultures were incubated with Texas-Red-conjugated phalloidin for 30 min. Unbound phalloidin was washed away by two PBS rinses, after which the coverglasses were mounted in Slow-Fade Light on microscope slides. Images were recorded on 35 mm film using a Zeiss Axiophot fluorescence microscope equipped with epiillumination.
Growth Cone Collapse Assay. Prior to repellent factor treatment, some of the day 2-3 explant cultures were pre-incubated (at 37° C.) with inhibitor or vehicle control (dimethylsulfoxide or ethanol) for 30-60 min. Cultures were then challenged with a repellent factor or vehicle control for 1-30 min. In some experiments, live cultures were photographed with a Zeiss IM 35 inverted photo microscope equipped with a stage heater, while in others cultures were fixed (as above) after 7 minutes of repellent factor treatment. Growth cone collapse was assessed quantitatively in aldehyde-fixed cultures by grading the degree of collapse in a large number of randomly selected growth cones.

12-Lox [4] = assay: Eicosanoid (HETE) generation in GCPs; format: biochemical, rat
Experimental: Eicosanoid Assays. Eicosanoid production in GCPs was measured by metabolic labelling from ^14C-AA or ^14C-AA-PC or by mass spectrometric detection. […] To measure Lox activity directly, without PLA2 involvement, ^3H-AA was the substrate of choice. Reactions were stopped by the addition of chloroform/methanol as for the phospholipase assays. Reaction products were extracted as described by Birkle et al., Neuromethods, vol. 7, pp.227-244 (Humana Press, N.J. 1988), spotted on pre-activated si gel 60 TLC plates, and the plates developed in the upper phase of ethyl acetate/isooctane/acetic acid/water (100:60:20:100). AA and HETEs were identified by co-migration with standards. Appropriate bands were counted by liquid scintillation spectrometry.
For mass-spectrometric (MS) identification of HETEs, two different strategies were pursued:
(1) the appropriate bands from non-labelled samples (PC substrate) were scraped from the TLC plate into ether/methanol (9:1) and stored under N2 at −20° C. Authentic 12(S)-HETE, run alongside in the same manner, was used as a standard. Just prior to analysis, samples were passed over an SPE filter to eliminate silica particles, dried under argon, resuspended in 500 μl ethanol, and injected (at 3 μl/min) into a Finnigan LCQ quadrupole ion trap mass spectrometer (Finnigan MAT, San Jose, Calif.) equipped with an electrospray ionization source. All spectra were acquired at a capillary temperature of 80° C., and ion guide voltages were tuned to maximize the abundance of the deprotonated ion species [M-H]^− in negative mode. In order to generate a spectrum, typically 100 single scans were averaged.
(2) For the other strategy (liquid chromatography/tandem MS, LC/MS^2), the reaction substrate consisted of 3.5 μM AA, with the addition of 3.5 μM deuterated AA (AA-D8) plus 1 μCi ^3H-AA to track reaction products by mass and radioactivity, respectively. Reactions were stopped with ice-cold ethanol, the mixtures kept overnight at −20° C. under N2, and the proteins spun out The supernatants were diluted with H2O and loaded onto 1-ml C18 Sep-Pak columns (Varian). After washing with H2O, eicosanoid was eluted with 2 ml methanol. These samples were resolved by reverse-phase HPLC, and the eluted fractions analyzed by tandem MS on-line (MacMillan and Murphy, 1995). Collision-induced decomposition of HETE isomers produced characteristic fragments that were identified at the second MS stage.

protein kinase C (PKC) = assay: MARCKS phosphorylation by PKC in isolated GCPs; format: biochemical, rat; settings: isolated growth cones
Description: FIG. 7A. Thrombin stimulates MARCKS phosphorylation in a 12-LOX-dependent manner. FIG. 7B. 12(S)-HETE stimulates MARCKS phosphorylation by PKC in isolated GCPs. […] Polypeptides were resolved by SDS-PAGE. MARCKS phosphorylation was quantified by phosphorimaging.

12-LOX [5] = settings: Cho et al., 1991; cited from earlier work
protein kinase C = settings: Kobayashi et al. 1989; cited from earlier work

effect of inhibitor on thrombin-stimulated MARCKS and GAP43 phosphorylation (protein kinase C (PKC)): blocks phosphorylation
Compound: N#CC(=Cc1ccc(O)c(O)c1)C(=O)OCC=Cc1ccccc1 [CDC, cinnamyl-3,4-dihydroxy-α-cyanocinnamate]
effect of LOX inhibitor on thrombin inhibition of migration (MAT-Lu cells [1]; CDC with thrombin, Table 1): reverses the effect of thrombin | Mat-Lu cells crossing filter in % of control +/− SEM (MAT-Lu cells [1]; Control column (no IGF-1)): 97.5 +/− 11.0 % of control | Mat-Lu cells crossing filter in % of control +/− SEM (MAT-Lu cells [1]; IGF-1 (0.75 nM)): 118 +/− 10.4 % of control | effect of inhibitor pretreatment on AA-induced pseudopod shortening (MAT-Lu cells [2]; 15 min pretreatment, indomethacin 10 ηm, NDGA 25 μM, CDC 63 and 126 nM): blocked the AA effect completely; also recorded: reversed the AA effect; also recorded: reversed to control levels | effect of agent alone on pseudopod length (MAT-Lu cells [2]; typically 15 min exposure): seemed to cause pseudopod elongation | effect of CDC pretreatment on 12(S)-HETE-induced collapse ([3]; 12(S)-HETE 10^−7M): is not affected | effect of inhibitor pretreatment on thrombin- or TRAP-induced growth cone collapse ([3]; CDC 10 μM, indomethacin 25 μM, pretreatment 30-45 min): inhibits the thrombin effect on growth cones; also recorded: partially inhibits collapse; also recorded: almost complete inhibition of this effect | effect of inhibitor on thrombin-stimulated HETE production from AA (12-Lox [4]; 3H-AA substrate): strongly inhibited | effect on thrombin-stimulated HETE levels (12-Lox [4]; 14C-AA-PC substrate, CDC 0.156 μM): reduces thrombin-stimulated HETE levels to below control | IC50 (12-LOX [5]): 63 nM

Compound: calphostin C
effect of PKC inhibitor pretreatment on 12(S)-HETE-triggered pseudopod withdrawal (MAT-Lu cells [2]; 12(S)-HETE 10^−10M, calphostin 50 and 100 nM, 15 min pretreatment): blocks pseudopod retraction; also recorded: completely inhibited pseudopod withdrawal | effect of inhibitor on thrombin-stimulated MARCKS and GAP43 phosphorylation (protein kinase C (PKC)): blocks phosphorylation | IC50 (protein kinase C): 50 nM
